Data set [1] addresses Human neutrophil elastase (Homo sapiens (Human), UniProt P08246). As to the kind of experiment: Human Neutrophil Elastase Assay. It counts as biochemical. To be noted: substrate MeOSuc-Ala-Ala-Pro-Val-AMC 250 μM, pH 7.5.
Data set [2] addresses neutrophil elastase in zymosan-stimulated human plasma (Homo sapiens (Human), UniProt P08246). The data set is described as follows: Neutrophil elastase inhibitory activity in human plasma. It counts as biochemical. The note with it: human plasma from zymosan-stimulated blood.
Method: Assay for the Determination of Neutrophil Elastase Inhibitory Activity in Human Plasma
Citrated blood from human healthy donors is mixed with zymosan suspension and incubated at room temperature. This leads to the stimulation of neutrophils and the release of neutrophil elastase into the plasma. The stimulated blood is centrifuged to generate the neutrophil elastase enriched plasma.
Various concentrations of the neutrophil elastase inhibitor are incubated with plasma. […] A dose response curve is generated to calculate the EC50 of the inhibitor.
The nature of data set [3]: Metabolic stability with human liver microsomes. Type of data set: in vitro ADME. The note with it: pH 7.6; pooled human liver microsomes, 1 μM test compound, 37° C.; read-out: t1/2 INVITRO. (In general: Liver microsomes are a subcellular fraction often used to study metabolism.)
The subject of the next data set is human hepatocytes. The data set is described as follows: Metabolic stability with human hepatocytes. Type of data set: in vitro ADME. The note with it: 1 μM test compound, well stirred model. The protocol:
Assay for the Determination of Metabolic Stability with Human Hepatocytes
The metabolic degradation of the test compound is assayed in a human hepatocyte suspension. Human hepatocytes (typically cryopreserved) are incubated in an appropriate buffer system (e.g. Dulbecco's modified eagle medium plus 3.5 μg glucagon/500 mL, 2.5 mg insulin/500 mL and 3.75 mg/500 mL hydrocortison) containing 5% species serum. Following a (typically) […] preincubation in an incubator (37° C., 10% CO2), 5 μl of test compound solution (80 μM; from […] stock solution in DMSO diluted 1:25 with medium) are added into 395 μl hepatocyte suspension (cell density in the range 0.25-5*10^6 cells/mL, typically 1*10^6 cells/mL; final concentration of test compound 1 μM, final DMSO concentration 0.05%). The cells are incubated for six hours (incubator, orbital shaker) and samples (25 μl) are taken at 0, 0.5, 1, 2, 4 and 6 hours. Samples are transferred into acetonitrile and pelleted by centrifugation (5 min) The supernatant is transferred to a new 96-deepwell plate, evaporated under nitrogen and resuspended. The decline of parent compound is analyzed by LC-MS/MS.
The intrinsic clearance CL_[…] is calculated as follows: CL_[…]=Dose/AUC=(C0/CD)/(AUD+clast/k)*1,000/60
(C0: initial concentration in the incubation [μM], CD: cell density of vital cells [10^6 cells/mL], AUD: area under the data [μM*h], clast: concentration of last data point [μM], k: slope of the regression line for parent decline [h^−1])
The calculated in vitro hepatic intrinsic clearance Qh can be scaled up to the intrinsic in vivo hepatic clearance and used to predict hepatic in vivo blood clearance (CL) by the use of a liver model (well stirred model): CL_[…]_INVIVO [ml/min/kg]=(CL_[…] [μL/min/10^6 cells]*hepatocellularity [10^6 cells/g liver]*liver factor [g/kg bodyweight])/1,000 CL [ml/min/kg]=CL_[…]_INVIVO [ml/min/kg]*hepatic blood flow [ml/min/kg]/(CL_[…]_INVIVO [ml/min/kg]+hepatic blood flow [ml/min/kg]) Qh [%]=CL [ml/min/kg]/hepatic blood flow [ml/min/kg])
(Hepatocellularity, human: 120*10^6 cells/g liver; liver factor, human: 25.7 g/kg bodyweight; blood flow, human: 21 ml/(min*kg))
The calculated in-vitro hepatic intrinsic clearance values of selected compounds in the metabolic stability assay with human hepatocytes described above are listed in Table 15.

Data set [4] in a line: Drug transport across human Caco-2 cells. Type of data set: in vitro ADME. The note with it: apparent permeability coefficient, Caco-2 monolayers, pH 7.2, 37° C.; for Papp A→B at 10 µM: apical-to-basal (absorptive), read-out: PEAB; for Papp B→A at 10 µM: basal-to-apical (secretory), read-out: PEBA. The text has this:
Assay for Determination of Drug Transport Across Human Caco-2 Cells
The assay provides information on the potential of a compound to pass the cell membrane, on the extent of oral absorption as well as on whether the compound is actively transported by uptake and/or efflux transporters. For the measurement of permeability across polarized, confluent human cancer colon carcinoma cells 2 (Caco-2) cell monolayers grown on permeable filter supports are used as the in vitro absorption model.
Apparent permeability coefficients (PE) of the compounds across the Caco-2 monolayers are measured (pH 7.2, 37° C.) in apical-to-basal (AB) (absorptive) and basal-to-apical (BA) (secretory) transport direction. AB permeability (PEAB) represents drug absorption from the intestine into the blood and BA permeability (PEBA) drug secretion from the blood back into the intestine via both passive permeability as well as active transport mechanisms mediated by efflux and uptake transporters that are expressed on the Caco-2 cells. The compounds are assigned to permeability/absorption classes by comparison of the AB permeabilities with the AB permeabilities of reference compounds with known in vitro permeability and oral absorption in the human. Identical or similar permeabilities in both transport directions indicate passive permeation, vectorial permeability points to additional active transport mechanisms. […] Active transport is concentration-dependently saturable.
Caco-2 cells (1-2*10^5 cells/cm^2 area) are seeded on filter inserts (Costar transwell polycarbonate or PET filters, 0.4 μm pore size) and cultured (DMEM) for 10 to 25 days. Compounds are dissolved in appropriate solvent (like DMSO, […] stock solutions). Stock solutions are diluted with HTP-4 buffer (128.13 mM NaCl, 5.36 mM KCl, 1 mM MgSO4, 1.8 mM CaCl2, 4.17 mM NaHCO3, 1.19 mM Na2HPO4x7H2O, 0.41 mM NaH2PO4xH2O, 15 mM HEPES, 20 mM glucose, pH 7.2) to prepare the transport solutions (typically 10 μM compound, final DMSO<=0.5%). The transport solution (TL) is applied to the apical or basolateral donor side for measuring A-B or B-A permeability (3 filter replicates), respectively. The receiver side contains HTP-4 buffer supplemented with 2% BSA. Samples are collected at the start and end of experiment from the donor and at various time intervals for up to 2 hours also from the receiver side for concentration measurement by LC-MS/MS or scintillation counting. Sampled receiver volumes are replaced with fresh receiver solution.
The apparent permeability coefficients (PEAB and PEBA) of selected compounds in the Caco-2 drug transport assay described above are listed in Table 16.

Data set [5] in a line: Aqueous solubility (High Throughput Method). To be noted: McIlvaine buffer pH 6.8 with 2.5% DMSO, kinetic from dmso stock, McIlvaine buffer pH 6.8, 2.5% DMSO, 24 h shaking. Type of data set: physicochemical. The protocol: Assay for Determination of Aqueous Solubility (“High Throughput Method”)
Starting from a […] DMSO stock solution, aliquots are diluted with acetonitrile/water (1/1) and McIlvaine buffer pH 6.8, respectively. After 24 h of shaking, the solutions or suspensions are filtered and analyzed by LC-UV. The amount dissolved in buffer is compared to the amount dissolved in the acetonitrile/water (1/1) solution. Solubility is measured from 0.001 to 0.125 mg/ml at a DMSO concentration of 2.5%. If more than 90% of the compound is dissolved in buffer, the value is marked with “>”.

Data set [6] in a line: Aqueous solubility (Shaked Flask Method). It counts as physicochemical. To be noted: aqueous buffer, thermodynamic from solid, pH 6.8. The protocol: Assay for Determination of Aqueous Solubility (“Shaked Flask Method”)
Saturated solutions are prepared in well plates by adding an appropriate volume of selected aqueous media (typically in the range of 0.25-1.5 ml) into each well which contains a known quantity of solid drug substance (typically in the range 0.5-5.0 mg). The wells are shaken or stirred for a predefined time period (typically in a range of 2-24 h) and then filtered using appropriate filter membranes (typically PTFE-filters with 0.45 μm pore size). Filter absorption is avoided by discarding the first few drops of filtrate. The amount of dissolved drug substance is determined by UV spectroscopy or by HPLC with UV-detection. In addition, the pH of the aqueous saturated solution is measured using a glass-electrode pH meter.

≈ marks a conversion by molar mass, not a printed value.

Sequence of Human neutrophil elastase (P08246 30-247): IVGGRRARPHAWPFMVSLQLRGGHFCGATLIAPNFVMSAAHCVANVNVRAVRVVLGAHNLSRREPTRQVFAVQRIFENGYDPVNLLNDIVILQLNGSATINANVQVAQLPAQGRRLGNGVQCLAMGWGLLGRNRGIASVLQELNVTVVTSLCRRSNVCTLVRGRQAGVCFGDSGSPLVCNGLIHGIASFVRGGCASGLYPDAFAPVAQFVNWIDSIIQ
Sequence of neutrophil elastase in zymosan-stimulated human plasma (P08246 30-247): as above

Consider `CN1C(=O)N(c2cccc(C(F)(F)F)c2)C2=C(C(=O)CC2)C1c1ccc(C#N)cc1-c1ccncn1` (stereo not shown) [Example 22, 4-[3-Methyl-2,5-dioxo-1-(3-trifluoromethyl-phenyl)-2,3,4,5,6,7-hexahydro-1H-cyclopentapyrimidin-4-yl]-3-pyrimidin-4-yl-benzonitrile], for which, in data set [1], the IC50 is 3.8 nM. Further, the midpoint of the response in data set [2], the EC50, lay at 6 nM. For the same compound, the half-life at 1 μM in data set [3] was over 2.17 h. The Qh in the data set on human hepatocytes is 12%. In addition, in data set [4], the Papp A→B at 10 µM is 52 ×10⁻⁶ cm/s and the Papp B→A at 10 µM is 77 ×10⁻⁶ cm/s. For the same compound, the concentration in solution in data set [5] (solubility at 24 h) was 83 µg/mL (≈ 170 µM). Moreover, in data set [6], the solubility is over 10 µg/mL.
The compound `CN1C(=O)N(c2cccc(C(F)(F)F)c2)C2=C(C(=O)CC2)C1c1ccc(C#N)cc1-c1cncnc1` (stereo not shown) [Example 21] came in with an IC50 in data set [1] of 1.3 nM. Besides, the midpoint of the response in data set [2], the EC50, lay at 2 nM. Besides, the half-life at 1 μM in data set [3] was over 2.17 h. This compound had a Qh with human hepatocytes of 23%. Also, in data set [4], the Papp A→B at 10 µM is 52 ×10⁻⁶ cm/s and the Papp B→A at 10 µM was 67 ×10⁻⁶ cm/s. The compound further registered a solubility at 24 h in data set [5] of 50 µg/mL (≈ 102 µM). In addition, the solubility in data set [6] was over 10 µg/mL.

Usually IC50 stands for the concentration at which inhibition is half-maximal. As usually defined, the EC50 is the concentration giving half of the maximal effect. Read a low EC50 as higher potency in that assay. In general, solubility refers to how much of the substance goes into solution per volume. Lower therefore signals little dissolved substance.

Source of the values: patent publication US9458113B2 (Boehringer Ingelheim International GmbH, priority 2014, dated 2016).
